# Experimental data as given in BindingDB's records for doi:10.1021/bi002865v (Pharmacia, 2001).
# Where a SMILES comes first, the peptide text is derived from it. [ ]: non-standard residue; d: D form. sY = N[C@@H](Cc1ccc(OS(=O)(=O)O)cc1)C(=O)O; Nle = CCCC[C@H](N)C(=O)O
# Molecular target: T1, Tyrosine-protein phosphatase non-receptor type 1 (Rattus norvegicus, UniProt P20417)
# T1 sequence (P20417 whole entry): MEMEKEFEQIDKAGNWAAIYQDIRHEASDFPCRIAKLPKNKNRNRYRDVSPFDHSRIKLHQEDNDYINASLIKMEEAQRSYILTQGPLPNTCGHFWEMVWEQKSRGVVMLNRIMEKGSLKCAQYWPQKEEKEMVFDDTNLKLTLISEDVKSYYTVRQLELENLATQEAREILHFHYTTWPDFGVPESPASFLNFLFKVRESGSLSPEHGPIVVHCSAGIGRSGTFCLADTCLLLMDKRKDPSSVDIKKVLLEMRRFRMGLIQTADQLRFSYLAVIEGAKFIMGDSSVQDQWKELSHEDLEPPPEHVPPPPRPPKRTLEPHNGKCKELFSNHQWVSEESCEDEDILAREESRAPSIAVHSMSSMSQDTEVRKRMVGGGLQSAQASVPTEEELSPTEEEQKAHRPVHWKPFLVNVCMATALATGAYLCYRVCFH
# Test: PTP1B Inhibition Assay
# Conditions: pH 7.2; 22 °C
# Text: Hydrolysis of substrate p-nitrophenyl phosphate was monitored on a 96-well microplate reader. Concentrations of PTP1B inhibitors that resulted in 50% reduction of enzyme activity (IC50) were derived by fitting reaction rates obtained in the presence and absence of compounds.
row,Structure (SMILES),Ki
1,CCCCCNC(=O)[C@H](Cc1ccc(OCC(=O)OC)c(C(=O)OC)c1)NC(=O)[C@H](Cc1ccccc1)NC(=O)CCC(=O)OC [methyl 2-(2-methoxy-2-oxoethoxy)-5-[(2S)-2-[(2S)-2-(methyl 3-formamidopropanoate)-3-phenylpropanamido]-2-(pentylcarbamoyl)ethyl]benzoate],> 100 µM
2,CCCCCNC(=O)[C@H](Cc1ccc(OCC(=O)O)c(C(=O)O)c1)NC(=O)CCC(=O)O [2-(carboxymethoxy)-5-[(2S)-2-(3-formamidopropanoic acid)-2-(pentylcarbamoyl)ethyl]benzoic acid],2.8 µM
3,CCCCCNC(=O)[C@H](Cc1ccc(OC(C(=O)O)C(=O)O)cc1)NC(=O)[C@H](Cc1ccccc1)NC(=O)CCC(=O)O [2-{4-[(2S)-2-[(2S)-2-(3-formamidopropanoic acid)-3-phenylpropanamido]-2-(pentylcarbamoyl)ethyl]phenoxy}propanedioic acid],1.2 µM
4,CCCCCNC(=O)[C@H](Cc1ccc(OC(C(=O)O)C(=O)O)cc1)NC(=O)CCC(=O)O [2-{4-[(2S)-2-(3-formamidopropanoic acid)-2-(pentylcarbamoyl)ethyl]phenoxy}propanedioic acid],12 µM
5,CCCCCNC(=O)[C@H](Cc1ccc(OS(=O)(=O)O)cc1)NC(=O)CCC(=O)O [Compound II],30 µM
6,CCCC[C@H](NC(=O)[C@H](Cc1ccc(OS(=O)(=O)O)cc1)NC(=O)[C@H](CC(=O)O)NC(C)=O)C(N)=O (Ac-Asp-[sY]-[Nle]-NH2),5 µM
7,"CCCCCNC(=O)[C@H](Cc1ccc(OCC(=O)O)c(C(=O)O)c1)NC(=O)[C@H](Cc1ccccc1)NC(=O)Cn1[nH]ncc1=S [2-(carboxymethoxy)-5-[(2S)-2-(pentylcarbamoyl)-2-[(2S)-3-phenyl-2-[1-(5-sulfanyl-1H-1,2,3-triazol-1-yl)acetamido]propanamido]ethyl]benzoic acid]",0.12 µM
